Assay results: US20130315825A1, “TRICYCLIC HETEROAROMATIC COMPOUNDS AS ALPHA-SYNUCLEIN LIGANDS” (Washington University, priority 2012, published 2013)

Experiments:
Aβ1-42 fibrils = molecular target: T1, Aβ1-42 fibrils (Homo sapiens, UniProt P05067); experiment: [125I]SIL23 competitive binding assay, Aβ1-42 fibrils; details: [125I]SIL23 competition, 95% confidence intervals in parentheses
T1 construct: Synthetic Aβ1-42 peptide (1 mg) (Bachem, Torrance, Calif.); purchased Bachem, Torrance, Calif; host or cells: synthetic peptide
T1 sequence (P05067 672-713 limits assumed): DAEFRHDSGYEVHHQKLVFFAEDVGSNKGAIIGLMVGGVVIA

tau fibrils = molecular target: T2, tau fibrils (Homo sapiens, UniProt P10636); experiment: [125I]SIL23 competitive binding assay, tau fibrils; details: [125I]SIL23 competition, 95% confidence intervals in parentheses
T2 construct: made in house; host or cells: BL21(DE3)RIL E. coli
T2 sequence (P10636 560-692): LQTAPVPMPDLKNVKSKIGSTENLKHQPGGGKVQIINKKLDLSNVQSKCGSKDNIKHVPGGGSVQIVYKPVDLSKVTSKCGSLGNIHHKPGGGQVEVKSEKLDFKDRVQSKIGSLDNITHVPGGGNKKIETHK

α-synuclein fibrils = α-synuclein fibrils (Homo sapiens, UniProt P37840); experiment: ThT fluorescence saturation binding to α-synuclein fibrils; parameters: made in house; host or cells: BL21(DE3)RIL E. coli
Description: The maximum excitation wavelength (λex) was determined according to the fluorescent intensity-excitation wavelength curve. At (λex), the emission wavelength was scanned to get maximum emission wavelength (λem).

[1] = Ex vivo biodistribution in Sprague-Dawley rats; details: for brain uptake: male SD rats (n=4);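 for all read-outs here: four rats in each time-point group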
Description: Group of rats (n=4) were used for each time point. […] The whole brain was quickly removed and dissected into segments consisting of brain stem, thalamus, striatum, hippocampus, cortex, and cerebellum. The remainder of the brain was also collected to determine total brain uptake. […] Tissues were weighed, and the % I.D./g for each tissue was calculated.

[2] = MicroPET study in the brain of a nonhuman primate; format: in vivo, cynomolgus monkey; details: monkey 5.8 kg, 8.68 mCi/6 mL injected
Excerpt: The brain of a cynologmus monkey was scanned using a microPET scanner. The left panel is the MRI image. The middle panel is the co-registered the MRI and PET image. The right panel is the PET image. […] FIG. 74 presents a plot of the radiation in portions of the monkey brain as a function of time. […] It also has favorable clearance pharmacokinetics from the brain.

COc1ccc2c(c1)Sc1cc(N)ccc1N2C [Compound 13a, 7-methoxy-10-methyl-10H-phenothiazin-3-amine]
melting point: 141.6 to 142.9 °C

O=[N+]([O-])c1ccc2c(c1)Sc1ccccc1N2 [SIL3B, 3-nitro-10H-phenothiazine]
Ki (Aβ1-42 fibrils): 71.5 nM
Ki (tau fibrils): 52.3 nM

O=[N+]([O-])c1ccc2c(c1)Sc1cc(Br)ccc1N2 [SIL22, 3-bromo-7-nitro-10H-phenothiazine]
Ki (Aβ1-42 fibrils): 102 nM
Ki (tau fibrils): 173 nM

Cc1ccc2c(c1)sc(-c1ccc(N(C)C)cc1)[n+]2C [ThT, Thioflavin T]
Bmax (α-synuclein fibrils): 5672 afu

COc1ccc2c(c1)Sc1cc([N+](=O)[O-])ccc1N2 [[^11C]SIL5]
Biodistribution ([1]; blood, 5 min, male Sprague-Dawley rats): 0.506 ± 0.040 I.D. %/gram
Biodistribution ([1]; blood, 30 min, male Sprague-Dawley rats): 0.369 ± 0.031 I.D. %/gram
Biodistribution ([1]; blood, 60 min, male Sprague-Dawley rats): 0.300 ± 0.015 I.D. %/gram
brain uptake ([1]; 5 min post i.v. injection): 0.953±0.115 % I.D./g
brain uptake ([1]; 30 min post i.v. injection): 0.287±0.046 % I.D./g
brain uptake ([1]; 60 min post i.v. injection): 0.158±0.014 % I.D./g
Biodistribution ([1]; fat, 5 min, male Sprague-Dawley rats): 0.155 ± 0.023 I.D. %/gram
Biodistribution ([1]; fat, 30 min, male Sprague-Dawley rats): 0.241 ± 0.042 I.D. %/gram
Biodistribution ([1]; fat, 60 min, male Sprague-Dawley rats): 0.293 ± 0.076 I.D. %/gram
Biodistribution ([1]; heart, 5 min, male Sprague-Dawley rats): 0.758 ± 0.052 I.D. %/gram
Biodistribution ([1]; heart, 30 min, male Sprague-Dawley rats): 0.377 ± 0.046 I.D. %/gram
Biodistribution ([1]; heart, 60 min, male Sprague-Dawley rats): 0.245 ± 0.010 I.D. %/gram
Biodistribution ([1]; kidney, 30 min, male Sprague-Dawley rats): 0.807 ± 0.086 I.D. %/gram
Biodistribution ([1]; kidney, 60 min, male Sprague-Dawley rats): 0.559 ± 0.053 I.D. %/gram
Biodistribution ([1]; liver, 5 min, male Sprague-Dawley rats): 2.198±0.111 I.D. %/gram
Biodistribution ([1]; liver, 30 min, male Sprague-Dawley rats): 1.349 ± 0.116 I.D. %/gram
Biodistribution ([1]; liver, 60 min, male Sprague-Dawley rats): 1.116±0.024 I.D. %/gram
decrease of liver uptake ([1]; liver, from 5 min to 60 min): about 50%
Biodistribution ([1]; lung, 5 min, male Sprague-Dawley rats): 1.149 ± 0.058 I.D. %/gram
Biodistribution ([1]; lung, 30 min, male Sprague-Dawley rats): 0.740 ± 0.038 I.D. %/gram
Biodistribution ([1]; lung, 60 min, male Sprague-Dawley rats): 0.485 ± 0.036 I.D. %/gram
ability to cross the blood-brain-barrier (BBB) ([1]; male Sprague-Dawley rats, i.v.): able to cross BBB
Biodistribution ([1]; muscle, 5 min, male Sprague-Dawley rats): 0.271 ± 0.005 I.D. %/gram
Biodistribution ([1]; muscle, 30 min, male Sprague-Dawley rats): 0.325 ± 0.030 I.D. %/gram
Biodistribution ([1]; muscle, 60 min, male Sprague-Dawley rats): 0.199 ± 0.016 I.D. %/gram
Biodistribution ([1]; pancreas, 5 min, male Sprague-Dawley rats): 1.007 ± 0.262 I.D. %/gram
Biodistribution ([1]; pancreas, 30 min, male Sprague-Dawley rats): 0.506 ± 0.066 I.D. %/gram
Biodistribution ([1]; pancreas, 60 min, male Sprague-Dawley rats): 0.522 ± 0.036 I.D. %/gram
Biodistribution ([1]; spleen, 5 min, male Sprague-Dawley rats): 0.659 ± 0.049 I.D. %/gram
Biodistribution ([1]; spleen, 30 min, male Sprague-Dawley rats): 0.400 ± 0.052 I.D. %/gram
Biodistribution ([1]; spleen, 60 min, male Sprague-Dawley rats): 0.386 ± 0.027 I.D. %/gram
brain uptake (microPET) [2]: high uptake in the brain
washout kinetics from the brain (microPET) [2]: good washout kinetics
